Measurements published in ChEMBL document CHEMBL5291721, “A preclinical secondary pharmacology resource illuminates target-adverse drug reaction associations of marketed drugs” (Nat Commun, 2023).

Tests used:
[1] = biological target: T1, Adenosine receptor A1 (Homo sapiens, UniProt P30542)
T1 sequence (P30542 whole entry): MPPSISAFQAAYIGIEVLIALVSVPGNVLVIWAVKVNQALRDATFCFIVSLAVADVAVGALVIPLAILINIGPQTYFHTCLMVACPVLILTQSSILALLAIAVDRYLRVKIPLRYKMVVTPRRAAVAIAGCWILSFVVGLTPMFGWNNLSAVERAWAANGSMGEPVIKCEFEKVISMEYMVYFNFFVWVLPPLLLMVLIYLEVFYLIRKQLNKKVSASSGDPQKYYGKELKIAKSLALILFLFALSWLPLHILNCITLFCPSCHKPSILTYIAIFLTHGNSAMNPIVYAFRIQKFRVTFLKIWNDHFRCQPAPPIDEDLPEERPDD

[2] = biological target: T2, Adenosine receptor A3 (Homo sapiens, UniProt P0DMS8)
T2 sequence (P0DMS8 whole entry): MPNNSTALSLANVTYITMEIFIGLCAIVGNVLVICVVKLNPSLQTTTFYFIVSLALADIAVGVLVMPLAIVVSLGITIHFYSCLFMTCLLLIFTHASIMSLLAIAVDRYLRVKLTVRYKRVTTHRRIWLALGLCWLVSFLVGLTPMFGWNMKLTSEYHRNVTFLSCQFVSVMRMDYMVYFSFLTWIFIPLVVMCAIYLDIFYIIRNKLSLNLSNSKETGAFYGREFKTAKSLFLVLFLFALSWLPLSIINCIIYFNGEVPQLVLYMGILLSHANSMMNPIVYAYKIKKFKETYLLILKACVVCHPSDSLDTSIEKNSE

[3] = biological target: T3, Alpha-2A adrenergic receptor (Homo sapiens, UniProt P08913); type: functional, cell-based
T3 sequence (P08913 whole entry): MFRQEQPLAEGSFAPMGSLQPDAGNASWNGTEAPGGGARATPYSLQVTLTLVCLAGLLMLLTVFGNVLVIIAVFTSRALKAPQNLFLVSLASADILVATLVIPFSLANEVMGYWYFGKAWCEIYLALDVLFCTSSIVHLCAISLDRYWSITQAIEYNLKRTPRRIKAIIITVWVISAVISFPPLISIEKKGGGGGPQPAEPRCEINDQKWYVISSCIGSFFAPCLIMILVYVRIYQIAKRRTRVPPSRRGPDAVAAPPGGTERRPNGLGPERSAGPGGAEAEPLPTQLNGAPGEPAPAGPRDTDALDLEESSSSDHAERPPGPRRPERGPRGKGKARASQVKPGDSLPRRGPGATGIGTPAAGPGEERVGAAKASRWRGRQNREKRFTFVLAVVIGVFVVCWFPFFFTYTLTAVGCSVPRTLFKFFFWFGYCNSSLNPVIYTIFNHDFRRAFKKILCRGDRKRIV

[4] = biological target: Vasopressin V2 receptor (Homo sapiens, UniProt P30518)
[5] = biological target: T4, Cholecystokinin receptor type A (Homo sapiens, UniProt P32238)
T4 sequence (P32238 whole entry): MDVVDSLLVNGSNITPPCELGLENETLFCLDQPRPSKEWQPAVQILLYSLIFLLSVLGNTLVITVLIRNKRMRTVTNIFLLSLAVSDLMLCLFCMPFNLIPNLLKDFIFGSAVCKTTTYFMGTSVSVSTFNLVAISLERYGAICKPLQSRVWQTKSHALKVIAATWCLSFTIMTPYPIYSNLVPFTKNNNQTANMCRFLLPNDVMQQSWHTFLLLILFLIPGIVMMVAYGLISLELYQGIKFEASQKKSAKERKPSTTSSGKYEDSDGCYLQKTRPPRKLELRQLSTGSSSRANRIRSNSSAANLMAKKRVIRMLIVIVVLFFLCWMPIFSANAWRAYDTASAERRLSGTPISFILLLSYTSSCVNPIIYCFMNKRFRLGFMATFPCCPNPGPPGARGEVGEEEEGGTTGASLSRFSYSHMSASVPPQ

[6] = biological target: Growth hormone secretagogue receptor type 1 (Homo sapiens, UniProt Q92847)
[7] = biological target: Histamine H2 receptor (Homo sapiens, UniProt P25021); type: functional, cell-based
[8] = biological target: T5, Equilibrative nucleoside transporter 1 (Homo sapiens, UniProt Q99808)
T5 sequence (Q99808 whole entry): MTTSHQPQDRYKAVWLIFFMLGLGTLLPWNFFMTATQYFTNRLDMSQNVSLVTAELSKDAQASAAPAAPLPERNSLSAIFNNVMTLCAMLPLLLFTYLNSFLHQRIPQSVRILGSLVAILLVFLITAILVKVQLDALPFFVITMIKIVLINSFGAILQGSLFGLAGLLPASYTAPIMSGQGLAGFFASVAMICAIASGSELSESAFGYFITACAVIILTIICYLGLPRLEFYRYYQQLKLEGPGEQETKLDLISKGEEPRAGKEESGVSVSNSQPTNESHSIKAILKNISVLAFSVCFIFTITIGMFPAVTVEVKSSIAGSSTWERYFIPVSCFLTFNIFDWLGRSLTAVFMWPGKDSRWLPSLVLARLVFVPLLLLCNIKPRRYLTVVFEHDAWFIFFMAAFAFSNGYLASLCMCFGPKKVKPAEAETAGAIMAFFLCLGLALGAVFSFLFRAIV

[9] = biological target: T6, Thromboxane A2 receptor (Homo sapiens, UniProt P21731)
T6 sequence (P21731 whole entry): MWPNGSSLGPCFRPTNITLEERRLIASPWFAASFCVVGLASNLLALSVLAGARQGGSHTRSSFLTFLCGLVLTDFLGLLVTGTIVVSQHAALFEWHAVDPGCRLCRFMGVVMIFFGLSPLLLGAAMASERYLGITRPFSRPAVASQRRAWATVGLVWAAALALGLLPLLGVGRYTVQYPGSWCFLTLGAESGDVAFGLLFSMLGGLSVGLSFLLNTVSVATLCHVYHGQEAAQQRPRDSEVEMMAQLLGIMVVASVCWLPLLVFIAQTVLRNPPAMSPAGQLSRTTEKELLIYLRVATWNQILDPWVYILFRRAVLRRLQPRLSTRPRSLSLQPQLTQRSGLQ

[10] = biological target: Sodium-dependent dopamine transporter (Homo sapiens, UniProt Q01959)
[11] = biological target: Sodium-dependent noradrenaline transporter (Homo sapiens, UniProt P23975)
[12] = biological target: D(3) dopamine receptor (Homo sapiens, UniProt P35462)
Further: assay procedure not described here.

Sodium-dependent dopamine transporter, sequence (Q01959 whole entry): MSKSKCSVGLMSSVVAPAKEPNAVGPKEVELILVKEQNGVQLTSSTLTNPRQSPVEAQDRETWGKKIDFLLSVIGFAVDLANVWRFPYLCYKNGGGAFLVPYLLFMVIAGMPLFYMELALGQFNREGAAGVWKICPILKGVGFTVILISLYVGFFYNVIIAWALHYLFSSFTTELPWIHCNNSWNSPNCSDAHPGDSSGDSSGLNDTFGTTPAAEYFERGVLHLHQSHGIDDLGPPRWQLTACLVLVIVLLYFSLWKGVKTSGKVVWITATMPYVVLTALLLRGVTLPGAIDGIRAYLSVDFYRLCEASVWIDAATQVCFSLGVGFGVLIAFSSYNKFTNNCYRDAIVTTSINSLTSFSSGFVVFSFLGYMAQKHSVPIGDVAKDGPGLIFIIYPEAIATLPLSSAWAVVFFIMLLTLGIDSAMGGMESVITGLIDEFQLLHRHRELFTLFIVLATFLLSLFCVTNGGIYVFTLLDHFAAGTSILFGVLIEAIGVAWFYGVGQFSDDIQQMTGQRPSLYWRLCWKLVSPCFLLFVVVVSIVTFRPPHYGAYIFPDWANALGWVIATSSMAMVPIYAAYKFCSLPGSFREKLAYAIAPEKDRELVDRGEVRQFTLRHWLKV
Histamine H2 receptor, sequence (P25021 whole entry): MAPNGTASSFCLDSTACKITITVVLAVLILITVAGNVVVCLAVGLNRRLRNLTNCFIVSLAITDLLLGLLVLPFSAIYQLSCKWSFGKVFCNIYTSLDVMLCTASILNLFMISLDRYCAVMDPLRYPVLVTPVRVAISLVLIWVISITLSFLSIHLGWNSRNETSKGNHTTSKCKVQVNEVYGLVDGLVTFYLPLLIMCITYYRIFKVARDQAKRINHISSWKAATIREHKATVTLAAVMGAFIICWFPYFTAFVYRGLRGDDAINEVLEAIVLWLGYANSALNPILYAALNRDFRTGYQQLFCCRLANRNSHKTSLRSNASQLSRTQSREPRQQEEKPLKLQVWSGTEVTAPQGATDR
Sodium-dependent noradrenaline transporter, sequence (P23975 whole entry): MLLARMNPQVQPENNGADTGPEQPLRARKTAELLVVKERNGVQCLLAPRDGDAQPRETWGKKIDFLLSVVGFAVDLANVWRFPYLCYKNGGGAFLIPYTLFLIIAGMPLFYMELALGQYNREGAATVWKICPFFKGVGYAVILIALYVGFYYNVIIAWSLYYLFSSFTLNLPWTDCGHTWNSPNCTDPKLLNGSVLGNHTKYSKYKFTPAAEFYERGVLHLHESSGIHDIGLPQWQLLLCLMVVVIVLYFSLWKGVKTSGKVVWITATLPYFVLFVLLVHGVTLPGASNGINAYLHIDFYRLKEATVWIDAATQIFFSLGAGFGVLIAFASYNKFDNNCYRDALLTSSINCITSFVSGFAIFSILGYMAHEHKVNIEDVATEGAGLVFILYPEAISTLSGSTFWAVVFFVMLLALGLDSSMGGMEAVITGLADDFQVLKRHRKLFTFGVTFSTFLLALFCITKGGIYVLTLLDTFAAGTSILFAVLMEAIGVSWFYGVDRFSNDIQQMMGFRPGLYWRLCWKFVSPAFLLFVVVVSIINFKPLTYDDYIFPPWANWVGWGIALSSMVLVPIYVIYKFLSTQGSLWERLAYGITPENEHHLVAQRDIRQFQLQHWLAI
D(3) dopamine receptor, sequence (P35462 whole entry): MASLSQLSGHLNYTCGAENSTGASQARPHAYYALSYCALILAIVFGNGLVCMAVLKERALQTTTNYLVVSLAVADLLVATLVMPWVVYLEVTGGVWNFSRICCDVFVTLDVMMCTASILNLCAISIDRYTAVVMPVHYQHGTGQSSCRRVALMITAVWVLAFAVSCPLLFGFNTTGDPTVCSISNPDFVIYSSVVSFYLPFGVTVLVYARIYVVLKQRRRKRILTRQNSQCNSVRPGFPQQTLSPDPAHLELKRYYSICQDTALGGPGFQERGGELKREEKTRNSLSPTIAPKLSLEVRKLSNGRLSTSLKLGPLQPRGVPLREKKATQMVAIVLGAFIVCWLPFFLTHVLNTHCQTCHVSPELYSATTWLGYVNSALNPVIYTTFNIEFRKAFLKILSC
Growth hormone secretagogue receptor type 1, sequence (Q92847 whole entry): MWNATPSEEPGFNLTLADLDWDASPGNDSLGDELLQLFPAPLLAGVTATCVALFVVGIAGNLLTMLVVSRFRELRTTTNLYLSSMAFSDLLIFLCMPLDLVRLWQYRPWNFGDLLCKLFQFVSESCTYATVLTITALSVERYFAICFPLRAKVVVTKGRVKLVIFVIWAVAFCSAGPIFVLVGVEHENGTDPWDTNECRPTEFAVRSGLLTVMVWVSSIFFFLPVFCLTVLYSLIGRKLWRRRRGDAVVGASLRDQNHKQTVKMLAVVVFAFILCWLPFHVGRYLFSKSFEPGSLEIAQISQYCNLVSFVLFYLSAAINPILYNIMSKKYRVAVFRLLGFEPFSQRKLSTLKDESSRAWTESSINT
Vasopressin V2 receptor, sequence (P30518 whole entry): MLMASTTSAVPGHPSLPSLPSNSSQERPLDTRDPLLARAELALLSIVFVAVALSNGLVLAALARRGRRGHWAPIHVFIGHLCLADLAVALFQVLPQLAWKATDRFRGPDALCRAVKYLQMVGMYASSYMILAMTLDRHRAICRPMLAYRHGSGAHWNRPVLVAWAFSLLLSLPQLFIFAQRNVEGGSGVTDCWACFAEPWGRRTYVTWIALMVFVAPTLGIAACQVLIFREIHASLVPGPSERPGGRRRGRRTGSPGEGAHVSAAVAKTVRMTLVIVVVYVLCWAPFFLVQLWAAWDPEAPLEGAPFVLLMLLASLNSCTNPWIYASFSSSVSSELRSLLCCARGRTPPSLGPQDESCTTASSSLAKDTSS

SMILES	AC50 [1] [µM]	AC50 [2] [µM]	AC50 [3] [µM]	AC50 [4] [µM]	AC50 [5] [µM]	AC50 [6] [µM]	AC50 [7] [µM]	AC50 [8] [µM]	AC50 [9] [µM]	AC50 [10] [µM]	AC50 [11] [µM]	AC50 [12] [µM]
CC12CC3CC(C)(C1)CC(N)(C3)C2 [MEMANTINE]	> 30	> 30	> 10	> 30	> 30	> 30	> 10	> 30	> 30	> 30	> 30	> 30
CC(=O)N[C@@H](CS)C(=O)O [ACETYLCYSTEINE]	> 30	> 30	> 30	> 30	> 30	> 30	> 30	> 30	> 30	> 30	> 30	> 30
Cc1noc(NS(=O)(=O)c2ccc(N)cc2)c1C [SULFISOXAZOLE]	> 10	> 10	> 10	> 10	> 10	> 10	> 10	> 10	> 10	> 10	> 10	> 30
COCC1=C(C(=O)O)N2C(=O)[C@@H](NC(=O)/C(=N\OC)c3csc(N)n3)[C@H]2SC1 [CEFPODOXIME]	> 30	> 30	> 30	> 30	> 30	> 30	> 30	> 30	> 30	> 30	> 30	> 30
CCOC(=O)c1cncn1[C@H](C)c1ccccc1 [ETOMIDATE]	> 10	> 10	> 10	> 10	> 10	> 10	> 10	> 10	> 10	> 10	> 10	> 30
C[C@]12CCC(=O)C(O)=C1CC[C@@H]1[C@@H]2CC[C@]2(C)C(=O)CC[C@@H]12 [FORMESTANE]	> 30	> 30	> 30	> 30	> 30	> 30	> 30	> 30	> 30	> 30	> 30	> 30
CCC(=O)O[C@H]1CC[C@H]2[C@@H]3CCC4=CC(=O)CC[C@]4(C)[C@H]3CC[C@]12C [TESTOSTERONE PROPIONATE]	> 10	> 10	> 10	> 10	> 10	> 10	> 10	> 10	> 10	> 10	> 10	> 30
CCCCC(=O)O[C@]1(C(=O)CO)[C@@H](C)C[C@H]2[C@@H]3CCC4=CC(=O)C=C[C@]4(C)[C@@]3(F)[C@@H](O)C[C@@]21C [BETAMETHASONE VALERATE]	> 30	> 30	> 10	> 30	> 30	> 30	> 10	> 30	> 30	> 30	> 30	> 30
CC(C)(C)C(=O)OCC(=O)[C@H]1CC[C@H]2[C@@H]3CCC4=CC(=O)CC[C@]4(C)[C@H]3CC[C@]12C [DESOXYCORTICOSTERONE PIVALATE]	> 10	> 10	> 10	> 10	> 10	> 10	> 10	> 10	> 10	> 10	> 10	> 30
C=CCNc1nc(NCC=C)nc(N2CCN(C(c3ccc(F)cc3)c3ccc(F)cc3)CC2)n1 [ALMITRINE]	> 30	> 30	> 30	> 30	> 30	> 30	> 30	> 30	> 30	> 30	> 30	> 30
Clc1ccc2c(N3CCN(CCCN4CCN(c5ccnc6cc(Cl)ccc56)CC4)CC3)ccnc2c1 [PIPERAQUINE]	> 30	> 30	> 30	> 30	> 30	> 30	> 30	> 30	> 30	> 30	> 30	9
CN1CCC(=C2c3ccccc3CCc3cccnc32)CC1 [AZATADINE]	> 30	> 30	> 10	> 30	> 30	> 30	> 10	> 30	> 30	> 30	> 30	> 10
CC1OC2(CS1)CN1CCC2CC1 (stereo not drawn) [CEVIMELINE]	> 10	> 10	> 10	> 10	> 10	> 10	> 30	> 10	> 10	> 10	> 10	> 30
CC(N)C(O)c1ccccc1 (stereo not drawn) [PHENYLPROPANOLAMINE]	> 30	> 30	> 10	> 30	> 30	> 30	> 10	> 30	> 30	> 30	> 30	> 10
